# B1: eotaxin-2: chemokine, positive control in the whole blood assay (protein, UniProt O00175 27-119, looked up)
# C-C motif chemokine 24: VVIPSPCCMFFVSKRIPENRVVSYQLSSRSTCLKAGVIFTTKKGQQFCGDPKQEWVQRYMKNLDAKQKKASPRARAVAVKGPVQRYPGNQTTC
# Assays:
# human eosinophils [1] = assay: Eosinophil shape change in human PMNL by flow cytometry (GAFS assay); type: cell-based; conditions: for EC50: FIG. 3D; for IC50: Homo sapiens, Eosinophil, 1 μM histamine, FIG. 4B, read-out: IC50 in blocking 1 μM histamine-induced eosinophil shape change; for effect on histamine-induced eosinophil shape change: antagonist 10 μM, 1 μM histamine 10 min
# Procedure: PMNL were prepared as described above and cells were resuspended in assay buffer (PBS containing 10 mM Ca^2+ and Mg^2+, 10 mM HEPES, 10 mM glucose, and 0.1% BSA, pH 7.2-7.4). Aliquots of cells (5×10^5 PMNL in 80 μl assay buffer) were pretreated with histamine receptor analogues (diphenhydramine, ranitidine, thioperamide, Compound A or H3 receptor antagonist) for 10 min at room temperature before addition of histamine or chemokines in 1.2-ml polypropylene cluster tubes (Costar, Cambridge, Mass.) in a final volume of 100 μl. The tubes were placed in a 37° C. water bath for 10 min (or as indicated), after which they were transferred to an ice-water bath, and 250 μl of ice-cold fixative (2% paraformaldehyde in PBS) was added to terminate the reaction and to maintain the cell shape change. […] Cell shape change was monitored in forward scatter signals. To identify eosinophils and neutrophils in PMNL, cells were stained on ice for 30 min with saturating concentrations of FITC-conjugated anti-CCR3 or anti-CD16 antibodies, which are specific for eosinophils or neutrophils, respectively. Samples after antibody staining were analyzed in flow cytometry.
# [2] = tested on: eosinophils in human whole blood; assay: Whole blood eosinophil shape change GAFS assay (Example 1A); type: cell-based
# Procedure: Starting materials were obtained as described in the experiments above. Human whole blood samples were used to study eosinophil shape change response. Human blood samples collected from healthy donors were treated with 3.8% tri-sodium citrate as anti-coagulator (or other anti-coagulators) and centrifuges at 300 rpm. The samples were used for experiments within 1 hour. Aliquots of 80 μl whole blood were pretreated with histamine receptor analogues (such as H1 receptor antagonist diphenhydramine, H2 antagonist ranitidine, H4 receptor antagonists thioperamide and Compound A, and H3 receptor antagonist Compound B) for 10 minutes before addition of histamine or chemokines in 1.2-ml polypropylene cluster tubes (Costar, Cambridge, Mass.) in a final volume of 100 μl. The tubes were placed in a 37° C. water bath for 10 min, after which they were transferred to an ice-water bath, and 250 μl of ice-cold fixative (2% paraformaldehyde in PBS or other fixatives) was added to terminate the reaction and to maintain the cell shape change. Red cells were lysed with 3 ml Qiagen lysis solution (Qiagen, Valencia, Calif.) for 10 minutes at 4° C. Leukocytes were recovered by centrifugation at 2000 rpm for 5 minutes, washed once with either PBS containing 10 mM Ca^2+ and Mg^2+, 10 mM HEPES, 10 mM glucose, and 0.1% BSA (for FIGS. 10 and 11) or PBS containing 0.5% BSA and 2 mM EDTA (for other figures), and then resuspended in the same buffer. The cell shape change was analyzed on a FACScan flow cytometer (Becton Dickinson, Mountain View, Calif.). Eosinophils were gated based on their high autofluorescence relative to neutrophils and shape change was monitored in forward scatter signals. Data were acquired for 1500 high-fluorescence eosinophil events. The results are expressed as the percentage increase in FSC compared to unstimulated cells. Results obtained are provided in the Tables I and II, below, which also correspond to FIG. 7 and FIG. 8, respectively.
# human eosinophils [3] = assay: Cell surface expression of adhesion molecules on eosinophils by flow cytometry; type: cell-based; conditions: for effect on histamine-induced up-regulation of CD11b/CD18 and CD54 expression: antagonist 10 μM
# Procedure: Purified eosinophils were used to study cell surface expression of adhesion molecules. Eosinophils were resuspended in PBS containing 10 mM Ca^2+ and Mg^2+, 10 mM HEPES, 10 mM glucose, and 0.1% BSA, pH 7.2-7.4. Aliquots of cells (5×10^5 PMNL) were pretreated with histamine receptor analogues (as described above) for 10 min before addition of histamine or chemokines in 1.2-ml polypropylene cluster tubes (Costar, Cambridge, Mass.) in a final volume of 100 μl. The tubes were placed in a 37° C. water bath for 10 min (or as indicated), after which they were transferred to an ice-water bath, and 250 μl of ice-cold fixative (0.5% paraformaldehyde in PBS) was added. Samples were then incubated on ice for 30 min with saturating concentration of either FITC or phycoerytherine-conjugated anti-CD11a, anti-CD11b or anti-CD54 antibodies, washed, and then analyzed by flow cytometry.
# [4] = tested on: purified human eosinophils; assay: In vitro eosinophil chemotaxis assay (Transwell); type: cell-based; conditions: for EC50: 2 h; for IC50: 1 μM histamine in lower chamber, read-out: IC50 in blocking 1 μM histamine-induced eosinophil chemotaxis; for effect on histamine-induced eosinophil chemotaxis: antagonist 10 μM in both chambers
# Procedure: Transwells (Costar, Cambridge, Mass.) with 5 μm pore size were coated with 100 μl of 100 ng/ml human fibronectin (Sigma) for 2 h at room temperature. After removal of excess fibronectin, 600 μl of RPMI-1640 medium containing 0.5% BSA and different concentrations of histamine (0.01-100 μM) was added to the bottom chamber, Eosinophils (2×10^5/well) were added to the top chamber. Histamine receptor analogues (diphenhydramine, ranitidine, thioperamide, Compound A or Compound B) were added to both the top and bottom chambers to a final concentration of 10 μM or at other concentration as stated in figure legends. The plates were incubated for 2 h at 37° C. and the number of cells migrated to the bottom chamber was counted for 1 min using flow cytometer.
# human neutrophils = conditions: 1 μM, 10 min
# Procedure: Human PMNL samples were used to study eosinophil shape change response. PMNL were prepared as described above and cells were resuspended in assay buffer (PBS containing 10 mM Ca^2+ and Mg^2+, 10 mM HEPES, 10 mM glucose, and 0.1% BSA, pH 7.2-7.4). Aliquots of cells (5×10^5 PMNL in 80 μl assay buffer) were pretreated with histamine receptor analogues (diphenhydramine, ranitidine, thioperamide, Compound A or H3 receptor antagonist) for 10 min at room temperature before addition of histamine or chemokines in 1.2-ml polypropylene cluster tubes (Costar, Cambridge, Mass.) in a final volume of 100 μl. […] The cell shape change was analyzed with the flow cytometer (Becton Dickinson, Mountain View, Calif.). […] Cell shape change was monitored in forward scatter signals. […] Samples after antibody staining were analyzed in flow cytometry.
# The analysis of eosinophil cell shape change by flow cytometry, known as gated autofluorescence forward scatter (GAFS) assay, allows a quantitative measurement of cell shape change induced by chemoattractants (Sabroe et al., 1999, “Differential regulation of eosinophil chemokine signaling via CCR3 and non-CCR3 pathways,” J. Immunol., 162, 2946-2955). […]
# [5] = cited from earlier work
# human eosinophils [6] = conditions: cited from earlier work
# [7] = tested on: eosinophils in human whole blood; assay: Whole blood eosinophil shape change assay with ranitidine co-treatment (Example 1B); type: cell-based; conditions: FIG. 11
# Procedure: In this example, starting materials were obtained as described in Example 1A. Human whole blood samples were used to study eosinophil shape change response. Human blood samples collected from healthy donors were treated with 3.8% tri-sodium citrate as anti-coagulator (or other anti-coagulators) and centrifuges at 300 rpm. The samples were used for experiments within 1 hour. […] The cell shape change was analyzed on a FACScan flow cytometer (Becton Dickinson, Mountain View, Calif.). Eosinophils were gated based on their high autofluorescence relative to neutrophils and shape change was monitored in forward scatter signals. Data were acquired for 1500 high-fluorescence eosinophil events. Results are expressed as the percentage increase in FSC compared to unstimulated cells.
# [8] = after histamine treatment, FIG. 3A
# [9] = histamine 0.1 uM alone, lower part
# [10] = histamine 1 uM alone, lower part
# [11] = histamine 10 uM alone, lower part
# [12] = histamine 0.1 uM + compound A 10 uM
# [13] = histamine 1 uM + compound A 10 uM
# [14] = histamine 10 uM + compound A 10 uM
molecule,measurement,setting,value
N=C(N)SCCc1cnc[nH]1 [imetit],agonist effect on eosinophil shape change,human eosinophils [1]; FIG. 4C,partial shape change
same,agonist effect on eosinophil shape change in whole blood,[2]; FIGS. 9A and 9B,mimic histamine in inducing eosinophil shape change
"NCCc1c[nH]cn1 [histamine, 4-(2-amino-ethyl)imidazole]",cell shape change on eosinophils,"human eosinophils [1]; 1 μM, 10 min",significant cell shape change
same,eosinophil shape change at 100 μM histamine,human eosinophils [1]; 100 μM,no shape change
same,earliest time at which eosinophil shape change is detected,human eosinophils [1]; [8],1 min
same,time of maximal eosinophil shape change,human eosinophils [1]; [8],5 min
same,time of return to the original cell shape,human eosinophils [1]; [8],40 min
same,combined effect on eosinophil shape change,"human eosinophils [1]; histamine combined with MCP-3, sub-optimal concentrations",Partial additive effects
same,optimal concentration for maximal shape change on eosinophils,"human eosinophils [1]; human PMNL, 10 min",~1 µM
same,EC50,human eosinophils [1]; human PMNL,44 nM
same,expression of CD11a/CD18 (LFA-1) on eosinophils,human eosinophils [3],not induced
same,optimal concentration for maximal up-regulation of CD11b/CD18 and CD54,human eosinophils [3]; 10-minute stimulation,10 µM
same,cell surface expression of CD11b/CD18 (Mac-1) and CD54 (ICAM-1) on eosinophils,"human eosinophils [3]; 10 min, 37° C.",induced by histamine in a concentration-dependent manner
same,persistence of the increase in cell surface adhesion molecules,human eosinophils [3]; 60 minutes incubation,maintained
same,effect on eosinophil chemotaxis induced by eotaxin-2 and MCP-3,[4]; 0.5 μM histamine,enhanced
same,EC50,"[4]; Homo sapiens, Eosinophil, Transwell",83 nM
same,concentration for maximal chemotactic effect on eosinophils,[4]; Transwell,1 µM
same,nature of the effect on eosinophil migration,[4]; disruption of concentration gradient,chemotactic but not chemokinetic
same,% change (increase in FSC compared to unstimulated cells),"[2]; histamine 0.01 uM, upper part",6.1%
same,GeoMean (FSC of eosinophils),"[2]; histamine 0.01 uM, upper part",239.8
same,% change (increase in FSC compared to unstimulated cells),[2]; [9],20.1%
same,GeoMean (FSC of eosinophils),[2]; [9],327.7
same,% change (increase in FSC compared to unstimulated cells),"[2]; histamine 0.1 uM, upper part",20.0%
same,GeoMean (FSC of eosinophils),"[2]; histamine 0.1 uM, upper part",271.3
same,% change (increase in FSC compared to unstimulated cells),[2]; [10],18.0%
same,GeoMean (FSC of eosinophils),[2]; [10],321.9
same,% change (increase in FSC compared to unstimulated cells),"[2]; histamine 1 uM, upper part",16.4%
same,GeoMean (FSC of eosinophils),"[2]; histamine 1 uM, upper part",263.3
same,% change (increase in FSC compared to unstimulated cells),[2]; [11],11.1%
same,GeoMean (FSC of eosinophils),[2]; [11],303.3
same,% change (increase in FSC compared to unstimulated cells),"[2]; histamine 10 uM, upper part",17.2%
same,GeoMean (FSC of eosinophils),"[2]; histamine 10 uM, upper part",265.0
same,% change (increase in FSC compared to unstimulated cells),"[2]; histamine 100 uM, upper part",30.8%
same,GeoMean (FSC of eosinophils),"[2]; histamine 100 uM, upper part",295.8
same,concentration at which a significant eosinophil shape change was detected,"[2]; whole blood, FIG. 7",~0.1 µM
same,cell shape change on neutrophils,human neutrophils,no effects
same,half-life in serum,[5],around 1 min
S=C(NC1CCCCC1)N1CCC(c2cnc[nH]2)CC1 [thioperamide],IC50,human eosinophils [1],128 nM
same,effect on histamine-induced eosinophil shape change,human eosinophils [1],blocked the histamine-induced eosinophil shape change completely
same,effect on histamine-induced up-regulation of CD11b/CD18 and CD54 expression,human eosinophils [3],abolished
same,IC50,"[4]; Homo sapiens, Eosinophil",519 nM
same,effect on histamine-induced eosinophil chemotaxis,[4],inhibited completely
same,effect on eosinophil chemotaxis toward histamine,human eosinophils [6],blocked
"CN1CCN(C(=O)c2cc3cc(Cl)ccc3[nH]2)CC1 [Compound A, (5-chloro-1H-indol-2-yl)-(4-methyl-piperazin-1-yl)-methanone]",IC50,human eosinophils [1],270 nM
same,effect on histamine-induced eosinophil shape change,human eosinophils [1],blocked the histamine-induced eosinophil shape change completely
same,effect on histamine-induced up-regulation of CD11b/CD18 and CD54 expression,human eosinophils [3],abolished
same,IC50,"[4]; Homo sapiens, Eosinophil",86 nM
same,effect on histamine-induced eosinophil chemotaxis,[4],inhibited completely
same,GeoMean (FSC of eosinophils),[2]; histamine 0.00 uM + Compound A 10 uM,268.1
same,% change (increase in FSC compared to unstimulated cells),[2]; histamine 0 uM + compound A 10 uM,0.0%
same,% change (increase in FSC compared to unstimulated cells),[2]; [12],1.5%
same,GeoMean (FSC of eosinophils),[2]; [12],272.1
same,% change (increase in FSC compared to unstimulated cells),[2]; [13],1.1%
same,GeoMean (FSC of eosinophils),[2]; [13],270.9
same,% change (increase in FSC compared to unstimulated cells),[2]; [14],−0.3%
same,GeoMean (FSC of eosinophils),[2]; [14],267.3
same,effect on eosinophil shape changes induced by histamine from 0.1 to 10 μM,"[2]; whole blood, FIG. 8",blocked
same,effect on H4 receptor-dependent shape change (histamine + ranitidine),[7],antagonized
B1,EC50,"human eosinophils [1]; human PMNL, chemokines",0.021 nM
same,EC50,[4]; Transwell,1.9 nM
same,% change (increase in FSC compared to unstimulated cells),[2]; Eotaxin2 0.01 nM,3.5%
same,GeoMean (FSC of eosinophils),[2]; Eotaxin2 0.01 nM,233.4
same,% change (increase in FSC compared to unstimulated cells),[2]; Eotaxin2 0.1 nM,1.0%
same,GeoMean (FSC of eosinophils),[2]; Eotaxin2 0.1 nM,227.7
same,% change (increase in FSC compared to unstimulated cells),[2]; Eotaxin2 1 nM,26.3%
same,GeoMean (FSC of eosinophils),[2]; Eotaxin2 1 nM,284.7
same,% change (increase in FSC compared to unstimulated cells),[2]; Eotaxin2 10 nM,53.4%
same,GeoMean (FSC of eosinophils),[2]; Eotaxin2 10 nM,346.0
same,% change (increase in FSC compared to unstimulated cells),[2]; Eotaxin2 100 nM,19.4%
same,GeoMean (FSC of eosinophils),[2]; Eotaxin2 100 nM,269.3

# From patent publication US20080102476A1, “Analyzing Histamine H4 Receptor-Mediated Effects In Whole Blood” (priority 2003, published 2008)
